Experiments:
MMP-8 = biological target: T1, MMP-8 (Homo sapiens, UniProt P22894); assay: In vitro MMP-8 inhibition test; type: biochemical; settings: human MMP-8
T1 construct: purchased R&D Systems 908-MP
Summary of the method: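 Recombinant APMA-activated MMP-8 (e.g. 0.5 nM final) incubated with compound in 50 mM Tris/HCl pH 7.5, 10 mM CaCl2, 150 mM NaCl, 0.05% Brij-35. Reaction started with quenched Mca-PLGL-Dpa(Dnp)-AR-NH2 substrate (e.g. 10 μM final); fluorescence (ex 320/em 410 nm) followed e.g. 120 min at 32 °C; IC50 at 50% signal.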

MMP-7 = biological target: T2, MMP-7 (Homo sapiens, UniProt P09237); assay: In vitro MMP-7 inhibition test; type: biochemical; settings: human MMP-7
T2 construct: purchased R&D Systems 907-MP
T2 sequence (P09237 95-267): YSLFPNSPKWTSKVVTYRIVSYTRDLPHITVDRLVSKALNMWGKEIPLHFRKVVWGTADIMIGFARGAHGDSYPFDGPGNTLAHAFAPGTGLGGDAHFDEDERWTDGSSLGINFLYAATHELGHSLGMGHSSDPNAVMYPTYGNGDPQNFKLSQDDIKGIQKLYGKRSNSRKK

MMP-9 = biological target: T3, MMP-9 (Homo sapiens, UniProt P14780); assay: In vitro MMP-9 inhibition test; type: biochemical; settings: human MMP-9
T3 construct: purchased R&D Systems 911-MP
T3 sequence (P14780 107-707 limits assumed): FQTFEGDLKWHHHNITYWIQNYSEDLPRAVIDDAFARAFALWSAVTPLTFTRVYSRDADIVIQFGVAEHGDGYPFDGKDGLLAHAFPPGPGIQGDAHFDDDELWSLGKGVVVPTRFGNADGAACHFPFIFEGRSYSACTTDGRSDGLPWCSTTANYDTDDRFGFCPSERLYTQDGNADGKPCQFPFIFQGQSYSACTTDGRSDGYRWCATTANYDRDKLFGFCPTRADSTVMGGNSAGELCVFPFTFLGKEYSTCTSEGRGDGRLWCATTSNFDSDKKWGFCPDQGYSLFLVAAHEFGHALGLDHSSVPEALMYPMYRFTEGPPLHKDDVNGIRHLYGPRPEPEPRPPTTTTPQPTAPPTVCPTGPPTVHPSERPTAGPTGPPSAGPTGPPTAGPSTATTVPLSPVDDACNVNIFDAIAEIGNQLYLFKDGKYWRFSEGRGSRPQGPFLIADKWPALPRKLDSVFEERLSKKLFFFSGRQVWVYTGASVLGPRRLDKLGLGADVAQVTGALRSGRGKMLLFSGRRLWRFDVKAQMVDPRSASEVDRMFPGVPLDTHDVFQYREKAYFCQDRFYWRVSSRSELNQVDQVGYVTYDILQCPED
Summary of the method: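 Recombinant MMP-9, APMA-activated, at ~0.1 nM final in 50 mM Tris/HCl pH 7.5, 10 mM CaCl2, 150 mM NaCl, 0.05% Brij-35, with compound in DMSO (e.g. 1 nM–30 μM). Reaction started with 10 μM Mca-PLGL-Dpa(Dnp)-AR-NH2, and fluorescence (ex 320/em 410 nm) was followed e.g. 120 min at 32 °C. IC50 is the concentration giving 50% signal.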

rat hepatocytes = assay: Hepatocyte assay for determination of metabolic stability; type: in vitro ADME; settings: after incubation with rat hepatocytes

T1 sequence (P22894 101-467): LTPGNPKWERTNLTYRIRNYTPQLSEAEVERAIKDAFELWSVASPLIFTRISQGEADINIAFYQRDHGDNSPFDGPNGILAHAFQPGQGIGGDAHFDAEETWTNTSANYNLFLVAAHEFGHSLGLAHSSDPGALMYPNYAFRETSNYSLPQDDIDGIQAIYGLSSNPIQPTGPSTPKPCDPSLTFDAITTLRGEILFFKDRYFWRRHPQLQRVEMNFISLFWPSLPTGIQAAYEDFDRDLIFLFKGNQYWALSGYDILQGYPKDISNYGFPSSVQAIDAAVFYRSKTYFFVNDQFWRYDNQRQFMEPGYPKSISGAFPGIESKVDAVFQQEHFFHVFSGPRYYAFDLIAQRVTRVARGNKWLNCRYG

IC50 (MMP-8) | IC50 (MMP-7) | IC50 (MMP-9) | CLblood (calculated blood clearance, well-stirred) (rat hepatocytes) | Fmax (maximum possible bioavailability after oral administration, well-stirred) (rat hepatocytes) | Structure (SMILES)
170 nM | > 40000 nM | 1700 nM | 22.7 mL/min/kg | 67.5% | O=C(C[C@H](CCn1nnc2ccccc2c1=O)C(=O)O)c1noc2cc(OCC3CCOCC3)ccc12 (single isomer, unassigned; enantiomer 2) [Example 135]
310 nM | 300 nM | 680 nM | 10.8 mL/min/kg | 84.5% | O=C(O)[C@@H]1[C@@H](Cn2nnc3ccc(C(F)(F)F)cc3c2=O)CC[C@H]1C(=O)c1cc2cc(OCCc3ccccc3)ccc2o1 (single isomer, unassigned; enantiomer 2) [Example 159, (+)-(1RS,2SR,5RS)-2-{[4-Oxo-6-(trifluoromethyl)-1,2,3-benzotriazin-3(4H)-yl]methyl}-5-{[5-(2-phenylethoxy)-1-benzofur-2-yl]carbonyl}cyclopentanecarboxylic acid (enantiomer 2)]

— patent US20170121315A1, “HETEROBICYCLICALLY SUBSTITUTED 4-OXOBUTANE ACID DERIVATIVES AND USE THEREOF” (priority 2014, published 2017)
